Reference: patent US9040527B2, “Pyrimidinediamine kinase inhibitors” (Rigel Pharmaceuticals, Inc., priority 2008, dated 2015)

Columns and labels:
PLK1 [1] = target: T1, PLK1 (Homo sapiens, UniProt P53350); assay: Cellular PLK1 assay in K562 cells overexpressing CDC25C; type: cell-based; set-up: endogenous in cells; host or cells: K562 (human chronic myelogenous leukemia) overexpressing CDC25C, nocodazole-arrested; settings: nocodazole arrested, cdc25c p-Ser198 readout
Protocol: (§1) Inhibition of PLK1 was measured by quantifying phosphorylation of PLK1 substrates using chemiluminescent and fluorogenic probes. The protocols for these assays are provided below.
1. Culturing of K562 Cells
Human chronic myelogenous leukemia K562 cells (American Tissue Culture Collection) overexpressing CDC25C, were grown in Growth Medium having the following composition: Iscove Dulbecco's Modified Eagle's Medium (“Iscove DMEM”, Mediatech/Cellgro, Cat. #10-013-CV), 10% Fetal Bovine Serum (“FBS”, SAFC Biosciences, Cat. #12106-500M), and 1% penicillin/streptomycin (“pen-strep”, Mediatech/Cellgro, Cat. #30-002-CI). The cells were plated in 96 well round bottom tissue culture plates (Fisher, Costar* Cell Culture plates, Cat. #07-200-95) at 100,000 cells per 50 μL of Growth Medium per well. Nocodazole (Sigma, Cat. # M1404) was added to the growth media to arrest the cells in the G2 or M phase, at 333 nM concentration. The cells were incubated with nocodazole for 18 hours at 37° C. prior to addition of tested compounds.
2. Treatment of Cells with the Tested Compounds
Solutions of tested compounds in DMSO at different concentrations were prepared using serial dilutions. Each compound was tested at 8 concentration points, 10 μM, 3.3 μM, 1.11 μM, 0.37 μM, 0.12 μM, 0.04 μM, 0.014 μM, 0.005 μM, duplicate replicates.
Two controls were performed: “DMSO alone” control in which nocodazole and DMSO were present but no compounds were added, and “nocodazole alone” control, in which only nocodazole was present, but neither DMSO nor compounds were added.
The solutions of compounds were prepared by diluting 10 mM compound 1:1 in DMSO (5 μL 10 mM compound and 5 μL DMSO), followed by 1:3 serial dilutions of compound in DMSO performed by diluting 3 μL of higher concentration compound solution serially into 6 μL DMSO to give 3-fold dilutions. Next, 3 μL of each compound solution at each concentration was transferred to 750 μL of Growth Medium. In “DMSO alone” control 3 μL of DMSO alone was added to 750 μL of Growth Medium.
After the diluted compounds were mixed well in the Growth Medium, 50 μL of each compound solution in DMSO/Growth Medium was transferred to each well of the 96-plate containing cells in 50 μL of Growth Medium/Nocodazole.
The cells and compounds were incubated for 120 minutes at 37° C., in an atmosphere containing 5% CO2.
3. Fixation and Permeabilization of the Cells
After the cells were incubated with compounds, the cells were spun down at 1,000 rpm for 5 minutes at 4° C. and supernatants were removed by flicking the plates. Cells were then washed with 200 μl of ice cold PBS, spun down again and supernatants removed. Cells were then fixed and permeabilized by addition of 100 μL/well of Fixation and Permeabilization Solution (1× buffer provided in BD Biosciences Cytofix/Cytoperm™ Fixation/Permeabilization kit, Cat. #554714) and incubation for 20 minutes at room temperature. The fixative was then removed by centrifugation (5 minutes at 2,000 rpm), and plates were flicked to remove the fixative and washed twice, each time with 200 μL/well BD Perm/Wash buffer (10× concentrate provided in BD Biosciences Cytofix/Cytoperm™ Fixation/Permeabilization kit, Cat. #554714, 1× buffer prepared by dilution in distilled H2O).
Cells were spun down at 1,000 rpm for 5 minutes at 4° C. Supernatants were removed by flicking the plates. A solution of a primary antibody specific for cdc25cp-Ser198 was prepared by diluting Rabbit cdc25c (Ser198) antibody (Cell Signaling, #9529L) 1:50 in a Fluorescence Activated Cell Sorting (“FACS”) Buffer (2% FBS in PBS). The cell pellets were resuspended in 50 μL of the primary antibody solution. 50 μL of FACS buffer was added to unstained controls. Staining was allowed to proceed overnight at room temperature.
The plates were then washed by addition of 200 μL of FACS Buffer to each well, were centrifuged and the supernatant was removed. […]

PLK1 [2] = target: T1, PLK1; assay: In vitro PLK1 ELISA assay (biochemical); set-up: purchased Cell Signalling 7728
Protocol: as §1
In Vitro PLK1 ELISA Assay
1. Preparation of Assay Plates.
Costar 96-well black or white solid flat high binding plates (Fisher Scientific, Catalog No. 07-200-591) were coated with Neutravidin (Pierce, Catalog No. 31000) using the following protocol. A 0.01 mg/mL solution of Neutravidin in 1× Phosphate Buffered Saline (“PBS”, Cellgro/Mediatech, Catalog No. 21-040-CV) was added to each well (100 μL/well) and was incubated for 18-24 hours at 4° C. The plates were then washed with 1× Phosphate Buffer Saline—Tween (“PBST”, Calbiochem, Catalog No. 524653) buffer using a plate washer. The plates were treated with bovine serum albumin (“BSA”, Sigma, Catalog No. A7906) to block non-specific binding sites, by adding a 2% BSA solution in 1×PBST buffer to each well (100 μL/well) and incubating the plates for 1 hour at room temperature. The plates were then washed with 1×PBST buffer using a plate washer.
2. PLK1-Catalyzed Phosphorylation Reaction
An aqueous buffer solution A having the following composition was prepared:
20 mM HEPES (Cellgro/Mediatech, Catalog No. 25-060Ci), pH 7.2;
5 mM MgCl2 (Sigma, Catalog No. M2393);
2 mM MnCl2.4H2O (EM Biosciences, Catalog No. MX0185-2);
1 mM Dithiothreitol (“DTT”, Fluka, Catalog No. B4184).
Next, the substrate solution B was prepared by adding 2.6 μL of 10 mM ATP (Sigma, Catalog No. A7699) and 6.4 μL of the 1 mM PLK1 substrate, CHK2-derived peptide Biotin-SSLETVSTQELYSIP (custom synthesized at Anaspec) SEQ ID: No. 1, to 4691 μL of the buffer solution A. The concentration of the ATP in solution B is 5.44 μM (1.36×); the concentration of the PLK1 substrate in solution B is 1.36 μM (1.36×).
Compound solutions C of varying concentrations for each compound were prepared by dissolving each compound in dimethylsulfoxide (DMSO, Sigma, Catalog No. D2650) to varying concentrations, followed by adding 2 μL of each solution to 38 μL of the buffer solution A, thereby forming 10× compound solutions in 5% DMSO.
A PLK1 solution D was prepared by adding 8.4 μL of 100 μg/mL PLK1 (Cell Signalling, Catalog No. 7728) to 1392 μL of the buffer solution A, thereby forming 0.6 μg/mL (6×) PLK1 solution.
The aqueous 1.36× substrate solution B was added to each well (44 μL/well) resulting in binding of the substrate to the plate via biotin/neutravidin interaction. Then 10× compound solutions C for each tested compound at each tested concentration were added to each well (6 μL/well). Next, 6×PLK1 solution D was added to each well (10 μL/well).
The final concentrations of tested compounds in each well were 10 μM, 3.3 μM, 1.1 μM, 0.36 μM, 0.12 μM, 0.04 μM, 0.014 μM, and 0.005 μM.
The obtained reaction mixtures were incubated in the wells for 45 minutes at room temperature, allowing PLK1-catalyzed phosphorylation of the substrate to proceed. The plates were then washed with 1×PBST solution using a plate washer, such that the bound phosphorylated or unphosphorylated substrate remains attached to the wells upon washing.
The washed plates were developed by treating the plates with a primary antibody that is specific for the phosphorylated substrate, followed by treatment with a secondary antibody that is specific for the primary antibody, and that is capable of catalyzing a reaction that results in a chemiluminescent readout. The chemiluminescent readout was used to quantify the substrate phosphorylation, and, consequently, to determine IC50 values for PLK1 inhibition, and was measured using a luminometer (Perkin Elmer/Wallac plate reader). The plate development protocol is described below.
A mixed antibody solution E was prepared by adding 1 μL of the primary antibody, rabbit p-CHK2(T68) (Rockland, Catalog No. 401280), and 1 μL of the secondary antibody, HRP-goat anti-rabbit IgG (Jackson Immunoresearch Catalog No. 111-035-003) to 10000 μL of 0.1% BSA in 1×PBST buffer. […]

[3] = ELISA, CHK2-derived peptide substrate, read-out: PLK1 IC50 (μM) biochemical assay
[4] = read-out: IC50 in biochemical in vitro PLK1 ELISA assay (less than 10 μM)

T1 sequence (P53350 whole entry): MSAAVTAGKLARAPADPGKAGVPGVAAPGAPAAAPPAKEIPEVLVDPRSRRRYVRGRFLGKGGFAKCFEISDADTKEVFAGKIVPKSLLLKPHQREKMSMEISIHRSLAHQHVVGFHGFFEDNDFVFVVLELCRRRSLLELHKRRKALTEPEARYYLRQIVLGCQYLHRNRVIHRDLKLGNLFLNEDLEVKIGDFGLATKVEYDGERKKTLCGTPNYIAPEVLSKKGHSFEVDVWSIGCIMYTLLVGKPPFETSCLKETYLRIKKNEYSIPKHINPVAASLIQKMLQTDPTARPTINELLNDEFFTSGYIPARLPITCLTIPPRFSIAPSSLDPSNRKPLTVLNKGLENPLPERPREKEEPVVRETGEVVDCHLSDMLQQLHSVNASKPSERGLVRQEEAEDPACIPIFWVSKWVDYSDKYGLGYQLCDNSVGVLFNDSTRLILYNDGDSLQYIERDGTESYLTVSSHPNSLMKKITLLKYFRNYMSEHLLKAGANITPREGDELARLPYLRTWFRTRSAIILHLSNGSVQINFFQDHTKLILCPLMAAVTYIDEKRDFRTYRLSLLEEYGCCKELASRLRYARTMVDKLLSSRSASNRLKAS

Compound | IC50 (PLK1 [1]) | IC50 (PLK1 [2]; [3]) | IC50 (PLK1 [2]; [4])
CC(C)c1ccc(N2CCN(C)CC2)cc1Nc1ncc(F)c(Nc2ccc3c(n2)NCCO3)n1 [compound 27, N4-(3,4-dihydro-2H-pyrido[3,2-b][1,4]oxazin-6-yl)-5-fluoro-N2-(2-isopropyl-5-(4-methylpiperazin-1-yl)phenyl)pyrimidine-2,4-diamine] | 0.5 to 5 µM | < 0.5 µM | < 10 µM
CC(=O)N1CCN(c2cccc(Nc3ncc(F)c(Nc4ccc5c(n4)NCCO5)n3)c2)CC1 [compound 164, 1-(4-(3-(4-(3,4-dihydro-2H-pyrido[3,2-b][1,4]oxazin-6-ylamino)-5-fluoropyrimidin-2-ylamino)phenyl)piperazin-1-yl)ethanone] | ≥ 10 µM |  | 
CN1CCN(c2cccc(Nc3ncc(F)c(Nc4ccc5c(n4)N(CC4CCCCC4)C(=O)CO5)n3)c2)CC1 [compound 110, 4-(cyclohexylmethyl)-6-(5-fluoro-2-(3-(4-methylpiperazin-1-yl)phenylamino)pyrimidin-4-ylamino)-2H-pyrido[3,2-b][1,4]oxazin-3(4H)-one] | ≥ 10 µM | 5 to 10 µM | < 10 µM
Cc1cnc(Nc2ccc(N3CCN(C)CC3)nc2)nc1Nc1ccc2c(c1)N(C)C(=O)C(C)(C)O2 [compound 202, 2,2,4-trimethyl-6-(5-methyl-2-(6-(4-methylpiperazin-1-yl)pyridin-3-ylamino)pyrimidin-4-ylamino)-2H-benzo[b][1,4]oxazin-3(4H)-one] | ≥ 10 µM |  | 
CCOC(=O)N1CCN(c2ccc(Nc3ncc(F)c(Nc4ccc5c(n4)NCCO5)n3)cc2)CC1 [compound 163, ethyl 4-(4-(4-(3,4-dihydro-2H-pyrido[3,2-b][1,4]oxazin-6-ylamino)-5-fluoropyrimidin-2-ylamino)phenyl)piperazine-1-carboxylate] | ≥ 10 µM |  | 
CCN1CCN(c2ccc(Nc3ncc(C)c(Nc4ccc5c(n4)N(C)C(=O)C(C)(C)O5)n3)cc2)CC1 [compound 94, 6-(2-(4-(4-ethylpiperazin-1-yl)phenylamino)-5-methylpyrimidin-4-ylamino)-2,2,4-trimethyl-2H-pyrido[3,2-b][1,4]oxazin-3(4H)-one] | ≥ 10 µM |  | 
Cc1cc(Nc2ncc(C)c(Nc3ccc4c(n3)N(C)C(=O)C(C)(C)O4)n2)ccc1N1CCN(C)CC1 [compound 98, 2,2,4-trimethyl-6-(5-methyl-2-(3-methyl-4-(4-methylpiperazin-1-yl)phenylamino)pyrimidin-4-ylamino)-2H-pyrido[3,2-b][1,4]oxazin-3(4H)-one] | ≥ 10 µM |  | 
CN1CCN(c2ccc(Nc3ncc(F)c(Nc4ccc5c(n4)NCCO5)n3)cc2)CC1 [compound 166, N4-(3,4-dihydro-2H-pyrido[3,2-b][1,4]oxazin-6-yl)-5-fluoro-N2-(4-(4-methylpiperazin-1-yl)phenyl)pyrimidine-2,4-diamine] | ≥ 10 µM |  | 
CCOC(=O)N1CCN(c2cccc(Nc3ncc(F)c(Nc4ccc5c(n4)NCCO5)n3)c2)CC1 [compound 165, ethyl 4-(3-(4-(3,4-dihydro-2H-pyrido[3,2-b][1,4]oxazin-6-ylamino)-5-fluoropyrimidin-2-ylamino)phenyl)piperazine-1-carboxylate] | ≥ 10 µM |  | 
CCN1CCN(c2ccc(Nc3ncc(C)c(Nc4ccc5c(n4)NC(=O)C(C)(C)O5)n3)cc2)CC1 [compound 92, 6-(2-(4-(4-ethylpiperazin-1-yl)phenylamino)-5-methylpyrimidin-4-ylamino)-2,2-dimethyl-2H-pyrido[3,2-b][1,4]oxazin-3(4H)-one] | ≥ 10 µM |  | 
CCN1CCN(c2ccc(Nc3ncc(C)c(Nc4ccc5c(n4)N(C)C(=O)CO5)n3)cc2)CC1 [compound 91, 6-(2-(4-(4-ethylpiperazin-1-yl)phenylamino)-5-methylpyrimidin-4-ylamino)-4-methyl-2H-pyrido[3,2-b][1,4]oxazin-3(4H)-one] | ≥ 10 µM |  | 
Cc1cnc(Nc2ccc(N3CCN(C)CC3)cc2)nc1Nc1ccc2c(n1)NC(=O)C(C)(C)O2 [compound 88, 2,2-dimethyl-6-(5-methyl-2-(4-(4-methylpiperazin-1-yl)phenylamino)pyrimidin-4-ylamino)-2H-pyrido[3,2-b][1,4]oxazin-3(4H)-one] | ≥ 10 µM |  | 
